Data from US20190345138A1, “HETEROCYCLIC AMIDES AS KINASE INHIBITORS” (GlaxoSmithKline Intellectual Property Development Limited, priority 2016, published 2019).
“And” between values parts separate entries of the source, which are not always exact repeats. Identical values can stand only once.

How the values were obtained:
RIP1 kinase = biological target: T1, RIP1 kinase (Homo sapiens, UniProt Q13546); assay: fluorescent polarization based binding assay; settings: mean of a minimum of 2 experiments
T1 sequence (Q13546 1-375 limits assumed): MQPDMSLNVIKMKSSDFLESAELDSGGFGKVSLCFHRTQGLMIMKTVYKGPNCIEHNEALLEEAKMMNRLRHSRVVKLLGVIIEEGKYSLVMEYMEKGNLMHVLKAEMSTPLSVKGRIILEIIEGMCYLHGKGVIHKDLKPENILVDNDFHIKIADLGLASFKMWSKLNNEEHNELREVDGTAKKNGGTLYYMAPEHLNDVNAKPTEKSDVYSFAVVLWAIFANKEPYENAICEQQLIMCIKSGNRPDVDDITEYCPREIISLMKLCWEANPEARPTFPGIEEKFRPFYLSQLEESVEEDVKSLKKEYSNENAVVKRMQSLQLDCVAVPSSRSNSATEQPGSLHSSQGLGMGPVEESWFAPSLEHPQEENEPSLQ
Excerpt: A fluorescent polarization based binding assay was used to assess the activity of the compounds of this invention, the details of which are disclosed in International Patent Appln. No. PCT/IB2014/059004, now, International Patent Appln. Pub.

[1] = tested on: human monocytic leukemia U937 cells; assay: necroptosis assay in U937 cells; assay type: cell-based; settings: Homo sapiens, U-937, U937 cells; viability by cellular ATP (Cell Titer-Glo); read-out: pIC50, inhibited necrosis in U937 cells (converted)
Procedure: The efficacy of RIP1 inhibitors can be tested […] in vitro using a human monocytic leukemia U937 or mouse L929 fibrosarcoma cells in a necroptosis assay. As determined using the method described in S. He et al., Cell, 137(6):1100-1111 (2009) and International Patent Appln. No. PCT/IB2014/059004, now, International Patent Appln. Pub.
Viability was measured by quantitating cellular levels of ATP using the Cell Titer-Glo kit. All data are means±standard deviation of the mean.

Row | Structure (SMILES) | IC50 (RIP1 kinase) | IC50 [1] [nM]
1 | N#Cc1cncnc1N1CCC(C(=O)N2N=CC[C@H]2c2ccccc2)CC1 [Example 50, (S)-4-(4-(5-phenyl-4,5-dihydro-1H-pyrazole-1-carbonyl)piperidin-1-yl)pyrimidine-5-carbonitrile] | 1 to 31.6 nM and 1 to 10 nM | 1 to 100
2 | O=C(C1CCN(c2ncc(-c3ccccc3)o2)CC1)N1N=CC[C@H]1c1ccccc1 [Example 67, (S)-(5-phenyl-4,5-dihydro-1H-pyrazol-1-yl)(1-(5-phenyloxazol-2-yl)piperidin-4-yl)methanone] | 1 to 31.6 nM | 1 to 100
3 | COc1nccc(N2CCC(C(=O)N3N=CC[C@H]3c3ccccc3)CC2)n1 [Example 17, (S)-(1-(2-methoxypyrimidin-4-yl)piperidin-4-yl)(5-phenyl-4,5-dihydro-1H-pyrazol-1-yl)methanone] | 1 to 31.6 nM and 1 to 10 nM | 1 to 100
4 | O=C(C1CCN(c2ccn3nccc3n2)CC1)N1N=CC[C@H]1c1ccccc1 [Example 21, (S)-(5-phenyl-4,5-dihydro-1H-pyrazol-1-yl)(1-(pyrazolo[1,5-a]pyrimidin-5-yl)piperidin-4-yl)methanone] | 1 to 31.6 nM and 1 to 10 nM | 1 to 100
5 | CSc1nccc(N2CCC(C(=O)N3N=CC[C@H]3c3ccccc3)CC2)n1 [Example 45, (S)-(1-(2-(methylthio)pyrimidin-4-yl)piperidin-4-yl)(5-phenyl-4,5-dihydro-1H-pyrazol-1-yl)methanone] | 1 to 31.6 nM and 1 to 10 nM | 1 to 100
6 | COc1cc(N2CCC(C(=O)N3N=CC[C@H]3c3ccccc3)CC2)ncn1 [Example 12, (S)-(1-(6-methoxypyrimidin-4-yl)piperidin-4-yl)(5-phenyl-4,5-dihydro-1H-pyrazol-1-yl)methanone] | 1 to 31.6 nM and 1 to 10 nM | 1 to 100

Second part, led by results:

Row | IC50 (RIP1 kinase) | Structure (SMILES) | IC50 [1] [nM]
7 | 1 to 31.6 nM and 1 to 10 nM | N#Cc1cnc(N2CCC(C(=O)N3N=CC[C@H]3c3cc(F)cc(F)c3)CC2)o1 [Example 133, (S)-2-(4-(5-(3,5-difluorophenyl)-4,5-dihydro-1H-pyrazole-1-carbonyl)piperidin-1-yl)oxazole-5-carbonitrile] | 1 to 100
8 | 1 to 31.6 nM | Nc1ccnc(N2CCC(C(=O)N3N=CC[C@H]3c3cc(F)cc(F)c3)CC2)n1 [Example 93, (S)-(1-(4-aminopyrimidin-2-yl)piperidin-4-yl)(5-(3,5-difluorophenyl)-4,5-dihydro-1H-pyrazol-1-yl)methanone] | 1 to 100
9 | 1 to 31.6 nM | CN1CCN(C(=O)c2ccnc(N3CCC(C(=O)N4N=CC[C@H]4c4ccccc4)CC3)n2)CC1 [Example 141, (S)-(4-methylpiperazin-1-yl)(2-(4-(5-phenyl-4,5-dihydro-1H-pyrazole-1-carbonyl)piperidin-1-yl)pyrimidin-4-yl)methanone] | 1 to 100
10 | 1 to 31.6 nM and 1 to 10 nM | CCN(CC)C(=O)c1ccnc(N2CCC(C(=O)N3N=CC[C@H]3c3ccccc3)CC2)n1 [Example 142, (S)-N,N-diethyl-2-(4-(5-phenyl-4,5-dihydro-1H-pyrazole-1-carbonyl)piperidin-1-yl)pyrimidine-4-carboxamide] | 1 to 100
11 | 1 to 31.6 nM | N#Cc1cncnc1N1CCC(C(=O)N2N=CC[C@H]2c2cc(F)cc(F)c2)CC1 [Example 88, (S)-4-(4-(5-(3,5-difluorophenyl)-4,5-dihydro-1H-pyrazole-1-carbonyl)piperidin-1-yl)pyrimidine-5-carbonitrile] | 1 to 100
12 | 1 to 31.6 nM and 1 to 10 nM | COc1nccc(N2CCC(C(=O)N3N=CC[C@H]3c3cc(F)cc(F)c3)CC2)n1 [Example 99, (S)-(5-(3,5-difluorophenyl)-4,5-dihydro-1H-pyrazol-1-yl)(1-(2-methoxypyrimidin-4-yl)piperidin-4-yl)methanone] | 1 to 100
13 | 1 to 31.6 nM and 1 to 10 nM | O=C(C1CCN(c2ccc3nccn3n2)CC1)N1N=CC[C@H]1c1cc(F)cc(F)c1 [Example 87, (S)-(5-(3,5-difluorophenyl)-4,5-dihydro-1H-pyrazol-1-yl)(1-(imidazo[1,2-b]pyridazin-6-yl)piperidin-4-yl)methanone] | 1 to 100
